Results from ChEMBL document CHEMBL4385594, “4(3H)-Quinazolinone derivatives: Promising antibacterial drug leads” (Eur J Med Chem, 2019).
In brackets after ≈: the same amount, converted by molar mass.

tested on: Staphylococcus aureus; assay: Antibacterial activity against Staphylococcus aureus assessed as reduction in bacterial cell growth at 0.03 to 64 ug/ml incubated for 16 to 18 hrs by CLSI broth dilution method; assay type: functional; details: not given

SMILES	MIC
N#Cc1ccc(/C=C/c2nc3ccccc3c(=O)n2-c2cccc(OCc3cn(-c4ccc(Cl)cc4)nn3)c2)cc1	0.5 µg/mL (≈ 0.898 µM)
C#CCOc1cccc(-n2c(/C=C/c3ccc(C#N)cc3)nc3c(C)cccc3c2=O)c1	1 µg/mL (≈ 2.4 µM)
CC(C)NC(=O)c1cccc(-n2c(/C=C/c3ccc(C#N)cc3)nc3ccccc3c2=O)c1	0.25 µg/mL (≈ 0.575 µM)
N#Cc1ccc(/C=C/c2nc3ccccc3c(=O)n2-c2cccc(C#N)c2)cc1	0.5 µg/mL (≈ 1.34 µM)
C=CCOc1cccc(-n2c(/C=C/c3ccc(C#N)cc3)nc3ccccc3c2=O)c1	0.125 µg/mL (≈ 0.308 µM)
Cc1cccc2c(=O)n(-c3cccc(O)c3)c(/C=C/c3ccc(C#N)cc3)nc12	0.5 µg/mL (≈ 1.32 µM)
CN(C)/C=C/c1nc2ccccc2c(=O)n1-c1cccc(C(=O)NC2CC2)c1	> 64 µg/mL
N#Cc1ccc(/C=C/c2nc3ccccc3c(=O)n2-c2ccc(O)cc2)cc1	8 µg/mL (≈ 21.9 µM)
N#Cc1ccc(/C=C/c2nc3cccc(Cl)c3c(=O)n2-c2cccc(C(=O)O)c2)cc1	8 µg/mL (≈ 18.7 µM)
N#Cc1ccc(/C=C/c2nc3ccccc3c(=O)n2-c2cccc(C(=O)NC3CC3)c2)cc1	0.5 µg/mL (≈ 1.16 µM)
N#Cc1ccc(/C=C/c2nc3ccccc3c(=O)n2-c2cccc(C(=O)N3CCCC3)c2)cc1	4 µg/mL (≈ 8.96 µM)
N#Cc1ccc(/C=C/c2nc3ccccc3c(=O)n2-c2cccc(C(=O)N3CCOCC3)c2)cc1	8 µg/mL (≈ 17.3 µM)
C#CCOc1cccc(-n2c(/C=C/c3ccc(C#N)cc3)nc3ccccc3c2=O)c1	0.25 µg/mL (≈ 0.62 µM)
N#Cc1ccc(/C=C/c2nc3ccccc3c(=O)n2-c2cccc(C(=O)N3CCCCC3)c2)cc1	4 µg/mL (≈ 8.69 µM)
Cc1nc2ccccc2c(=O)n1-c1cccc(C(=O)NC2CC2)c1	> 64 µg/mL
Cc1cccc2c(=O)n(-c3cccc(C(=O)O)c3)c(/C=C/c3ccc(C#N)cc3)nc12	2 µg/mL (≈ 4.91 µM)
C#Cc1cccc(-n2c(/C=C/c3ccc(C#N)cc3)nc3ccccc3c2=O)c1	0.5 µg/mL (≈ 1.34 µM)
C#CCOc1cccc(-n2c(/C=C/c3ccc(Cl)cc3)nc3ccccc3c2=O)c1	32 µg/mL (≈ 77.5 µM)

tested on: Escherichia coli; assay: Antibacterial activity against Escherichia coli assessed as diameter of zone inhibition at 100 ppm by disc diffusion method; assay type: functional; details: read-out: DIZ

SMILES	zone of inhibition at 100 ppm
Cc1nc2ccc(Br)cc2c(=O)n1/N=C/c1cc(Br)cc(Br)c1O	27 mm
Cc1nc2ccc(Br)cc2c(=O)n1/N=C/c1cc(I)cc(I)c1O	16 mm
Cc1nc2ccc(Br)cc2c(=O)n1/N=C/c1cc(Cl)cc(Cl)c1O	16 mm
Cc1nc2ccc(I)cc2c(=O)n1/N=C/c1cc(Br)cc(Br)c1O	16 mm
Cc1nc2ccc(I)cc2c(=O)n1/N=C/c1cc(I)cc(I)c1O	16 mm
Cc1nc2ccc(I)cc2c(=O)n1/N=C/c1cc(Cl)cc(Cl)c1O	16 mm
COc1cc(/C=N/n2c(C)nc3ccc(I)cc3c2=O)cc(I)c1O	16 mm
COc1cc(/C=N/n2c(C)nc3ccc(Br)cc3c2=O)cc(Br)c1O	16 mm
CN(C)[C@@H]1C(O)=C(C(N)=O)C(=O)[C@@]2(O)C(O)=C3C(=O)c4c(O)cccc4[C@@](C)(O)[C@H]3C[C@@H]12 [TETRACYCLINE]	6 to 27 mm

tested on: Staphylococcus aureus; assay: Antibacterial activity against Staphylococcus aureus assessed as diameter of zone inhibition at 100 ppm by disc diffusion method; assay type: functional; details: read-out: DIZ

SMILES	zone of inhibition at 100 ppm
Cc1nc2ccc(Br)cc2c(=O)n1/N=C/c1cc(Br)cc(Br)c1O	24 mm
Cc1nc2ccc(Br)cc2c(=O)n1/N=C/c1cc(I)cc(I)c1O	14 mm
Cc1nc2ccc(Br)cc2c(=O)n1/N=C/c1cc(Cl)cc(Cl)c1O	14 mm
Cc1nc2ccc(I)cc2c(=O)n1/N=C/c1cc(Br)cc(Br)c1O	14 mm
Cc1nc2ccc(I)cc2c(=O)n1/N=C/c1cc(I)cc(I)c1O	14 mm
Cc1nc2ccc(I)cc2c(=O)n1/N=C/c1cc(Cl)cc(Cl)c1O	14 mm
COc1cc(/C=N/n2c(C)nc3ccc(I)cc3c2=O)cc(I)c1O	14 mm
COc1cc(/C=N/n2c(C)nc3ccc(Br)cc3c2=O)cc(Br)c1O	14 mm
CN(C)[C@@H]1C(O)=C(C(N)=O)C(=O)[C@@]2(O)C(O)=C3C(=O)c4c(O)cccc4[C@@](C)(O)[C@H]3C[C@@H]12 [TETRACYCLINE]	12 to 24 mm

tested on: Escherichia coli; assay: Antibacterial activity against Escherichia coli ATCC 25922 assessed as reduction in bacterial cell growth at 0.03 to 64 ug/ml incubated for 16 to 18 hrs by CLSI broth dilution method; assay type: functional; details: not given

SMILES	MIC
O=c1c2c(Br)cc(Br)cc2nc(-c2ccccc2)n1-c1nc2ccc(Br)cc2s1	1 to 8.5 µg/mL (≈ 1.69 to 14.4 µM)
O=c1c2c(Br)cc(Br)cc2nc(-c2ccccc2)n1-c1nc2cc(Cl)ccc2s1	1.2 to 9 µg/mL (≈ 2.19 to 16.4 µM)

tested on: Pseudomonas aeruginosa; assay: Antibacterial activity against Pseudomonas aeruginosa ATCC 27853 assessed as reduction in bacterial cell growth at 0.03 to 64 ug/ml incubated for 16 to 18 hrs by CLSI broth dilution method; assay type: functional; details: not given

SMILES	MIC
O=c1c2c(Br)cc(Br)cc2nc(-c2ccccc2)n1-c1nc2ccc(Br)cc2s1	1 to 8.5 µg/mL (≈ 1.69 to 14.4 µM)
O=c1c2c(Br)cc(Br)cc2nc(-c2ccccc2)n1-c1nc2cc(Cl)ccc2s1	1.2 to 9 µg/mL (≈ 2.19 to 16.4 µM)

tested on: Enterococcus faecalis; assay: Antibacterial activity against Enterococcus faecalis ATCC 29212 assessed as reduction in bacterial cell growth at 0.03 to 64 ug/ml incubated for 16 to 18 hrs by CLSI broth dilution method; assay type: functional; details: not given

SMILES	MIC
O=c1c2c(Br)cc(Br)cc2nc(-c2ccccc2)n1-c1nc2ccc(Br)cc2s1	1 to 8.5 µg/mL (≈ 1.69 to 14.4 µM)
O=c1c2c(Br)cc(Br)cc2nc(-c2ccccc2)n1-c1nc2cc(Cl)ccc2s1	1.2 to 9 µg/mL (≈ 2.19 to 16.4 µM)

tested on: Suillus luteus; assay: Antifungal activity against Suillus luteus assessed as reduction in fungal cell growth; assay type: functional; details: not given

SMILES	MIC
CCCCNC(=O)Oc1ccc(-n2c(/C=C/c3ccc(Cl)cc3)nc3cc(Cl)ccc3c2=O)cc1	125 µg/mL (≈ 246 µM)

tested on: Staphylococcus aureus; assay: Antibacterial activity against Staphylococcus aureus ATCC 25923 assessed as reduction in bacterial cell growth at 0.03 to 64 ug/ml incubated for 16 to 18 hrs by CLSI broth dilution method; assay type: functional; details: not given

SMILES	MIC
O=c1c2c(Br)cc(Br)cc2nc(-c2ccccc2)n1-c1nc2ccc(Br)cc2s1	1 to 8.5 µg/mL (≈ 1.69 to 14.4 µM)
O=c1c2c(Br)cc(Br)cc2nc(-c2ccccc2)n1-c1nc2cc(Cl)ccc2s1	1.2 to 9 µg/mL (≈ 2.19 to 16.4 µM)
